From ChEMBL document CHEMBL5032516, “Synthesis and structural characterization of a monocarboxylic inhibitor for GRB2 SH2 domain” (Bioorg Med Chem Lett, 2021) come the findings set out here.

Data set [1] is described as follows: Permeability of compound assessed as percentage transport at 500 uM after 5 hrs by PAMPA assay. The format is ADME. On the technique in general: The PAMPA barrier holds no transporters, so it reflects passive diffusion.
The target in data set [2] is T1, Growth factor receptor-bound protein 2 (Homo sapiens, UniProt P62993). Put plainly: Displacement of FITC-Ahx-PVPePYINQSVPKRK-NH2 from N-terminal His6-tagged human full length GRB2 (1 to 217 residues) expressed in Escherichia coli by fluorescence anisotropy assay. (Polarisation of emitted light reports the rotation of a fluorescent probe.)
Data set [3] deals with T1, Growth factor receptor-bound protein 2.
A short description of data set [4]: Apparent permeability of compound at 500 uM after 5 hrs by PAMPA assay. The format is ADME.

T1 sequence (P62993 whole entry, the tested form may be a part): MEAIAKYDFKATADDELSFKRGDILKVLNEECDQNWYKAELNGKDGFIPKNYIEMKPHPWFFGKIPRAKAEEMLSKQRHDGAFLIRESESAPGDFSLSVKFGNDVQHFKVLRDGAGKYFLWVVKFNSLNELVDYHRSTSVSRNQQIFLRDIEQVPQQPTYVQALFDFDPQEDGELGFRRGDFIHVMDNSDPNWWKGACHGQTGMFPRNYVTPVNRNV

The IC50 is the concentration needed to halve the response being measured. The low end stands for higher potency, the high end for lower potency. What is called Ki is a dissociation constant, usually derived from enzyme kinetics or from competition with a known ligand. Low readings indicate a stronger hold on the target, high ones a looser hold on the target. Regarding `NC(=O)C[C@@H]1NC(=O)C2(CCCCC2)NC(=O)C[C@@H](c2ccc(CP(=O)(O)O)cc2)/C=C/C[C@@H](Cc2cccc3ccccc23)CNC1=O`, the permeability in data set [1] was 0%. The molecule further registered an IC50 in data set [2] of 350 nM. This molecule also gave a Ki in data set [3] of 16 nM.
Usually Papp stands for a coefficient for how fast a substance crosses the barrier. As for `NC(=O)C[C@@H]1NC(=O)C2(CCCCC2)NC(=O)C[C@@H](c2ccc(CC(=O)O)cc2)/C=C/C[C@@H](Cc2cccc3ccccc23)CNC1=O`, in data set [1], the permeability came out at 24.3%. The IC50 in data set [2] came to 740 nM. In data set [3], the affinity corresponds to a Ki of 140 nM. The Papp at 5 h, 500 µM in data set [4] stood at 19.2 ×10⁻⁶ cm/s.
In data set [2], `COC(=O)Cc1ccc([C@H]2/C=C/C[C@@H](Cc3cccc4ccccc34)CNC(=O)[C@H](CC(N)=O)NC(=O)C3(CCCCC3)NC(=O)C2)cc1` came in with an IC50 of over 20000 nM.
